Data taken from patent US10730889B2, “Amido spirocyclic amide and sulfonamide derivatives” (Forma TM, LLC, priority 2012, dated 2020).

Test system: A2780 cells
Assay: In-vitro cell proliferation assay (SRB, 72 hours)
Assay type: cell-based
Conditions: A2780 cells, 72 hours, SRB; read-out: Cell Proliferation (IC50)

Structure (SMILES) | IC50 [nM]
Cc1nn(C)c(C)c1C(=O)N1CCC2(CC1)CC2CNC(=O)c1cc2ccncc2o1 (single isomer, unassigned) [Example 300, N-[[6-(1,3,5-trimethylpyrazole-4-carbonyl)-6-azaspiro[2.5]octan-2-yl]methyl]furo[2,3-c]pyridine-2-carboxamide] | 335
Cc1nn(C)c(C)c1C(=O)N1CCC2(CC1)CC2CNC(=O)c1cc2ccncc2o1 (single isomer, unassigned) [Example 301, N-[[6-(1,3,5-trimethylpyrazole-4-carbonyl)-6-azaspiro[2.5]octan-2-yl]methyl]furo[2,3-c]pyridine-2-carboxamide] | 4.21

Same assay, conditions: Homo sapiens, A2780, 72 h, A2780 cells, 72 hours, SRB; read-out: Cell Proliferation (IC50)

Structure (SMILES) | IC50 [nM]
Cc1nc(C)c(C(=O)N2CCC3(CC2)CC3CNC(=O)c2cc3ccncc3o2)o1 (single isomer, unassigned) [Example 384, N-[[6-(2,4-dimethyloxazole-5-carbonyl)-6-azaspiro[2.5]octan-2-yl]methyl]furo[2,3-c]pyridine-2-carboxamide (single isomer)] | 436
O=C(NCC1CC12CCN(C(=O)C1CCOCC1)CC2)c1cc2cnccc2[nH]1 (stereo not drawn) [Example 10, N-[[8-(tetrahydropyran-4-carbonyl)-8-azaspiro[2.5]octan-2-yl]methyl]-1H-pyrrolo[3,2-c]pyridine-2-carboxamidc] | 791
CC(C)(C)OC(=O)N1CCC2(CC1)CC(CNC(=O)c1ccc3nccn3c1)C2 [Example 21, tert-butyl 2-((imidazo[1,2-a]pyridine-6-carboxamido)methyl]-7-azaspiro[3.5]nonane-7-carboxylate] | 2000
O=C(NCC1CC12CCN(C(=O)Cn1ccnc1)CC2)c1cc2ccncc2o1 (stereo not drawn) [Example 26, N-[[6-(2-imidazol-1-ylacetyl)-6-azaspiro[2.5]octan-2-yl]methyl]furo[2,3-c]pyridine-2-carboxamide] | 2000
O=C(NCC1CC12CCN(C(=O)CCC(F)(F)F)CC2)c1cc2ccncc2o1 (stereo not drawn) [Example 27, N-[[6-(4,4,4-trifluorobutanoyl)-6-azaspiro[2.5]octan-2-yl]methyl]furo[2,3-c]pyridine-2-carboxamide] | 842
CS(=O)(=O)c1cccc(CC(=O)N2CCC3(CC2)CC3CNC(=O)c2cc3ccncc3o2)c1 (stereo not drawn) [Example 28, N-[[6-[2-(3-methylsulfonylphenyl)acetyl]-6-azaspiro[2.5]octan-2-yl]methyl]furo[2,3-c]pyridine-2-carboxamide] | 616
CC(C)(C)CC(=O)N1CCC2(CC1)CC2CNC(=O)c1cc2ccncc2o1 (stereo not drawn) [Example 29, N-[[6-(3,3-dimethylbutanoyl)-6-azaspiro[2.5]octan-2-yl]methyl]furo[2,3-c]pyridine-2-carboxamide] | 3.03
CN1CCN(CC(=O)N2CCC3(CC2)CC3CNC(=O)c2cc3ccncc3o2)CC1 (stereo not drawn) [Example 30, N-[[6-[2-(4-methylpiperazin-1-yl)acetyl]-6-azaspiro[2.5]octan-2-yl]methyl]furo[2,3-c]pyridine-2-carboxamide] | 614
N#Cc1cccc(CC(=O)N2CCC3(CC2)CC3CNC(=O)c2cc3ccncc3o2)c1 (stereo not drawn) [Example 31, N-[[6-[2-(3-cyanophenyl)acetyl]-6-azaspiro[2.5]octan-2-yl]methyl]furo[2,3-c]pyridine-2-carboxamide] | 12.1
O=C(NCC1CC12CCN(C(=O)CC1CC1)CC2)c1cc2ccncc2o1 (stereo not drawn) [Example 32, N-[[6-(2-cyclopropylacetyl)-6-azaspiro[2.5]octan-2-yl]methyl]furo[2,3-c]pyridine-2-carboxamide] | 2000
O=C(NCC1CC12CCN(C(=O)CN1CCCC1)CC2)c1cc2ccncc2o1 (stereo not drawn) [Example 33, N-[[6-(2-pyrrolidin-1-ylacetyl)-6-azaspiro[2.5]octan-2-yl]methyl]furo[2,3-c]pyridine-2-carboxamide] | 2000
Cc1cc(CC(=O)N2CCC3(CC2)CC3CNC(=O)c2cc3ccncc3o2)on1 (stereo not drawn) [Example 34, N-[[6-[2-(3-methylisoxazol-5-yl)acetyl]-6-azaspiro[2.5]octan-2-yl]methyl]furo[2,3-c]pyridine-2-carboxamide] | 379
O=C(NCC1CC12CCN(C(=O)CN1CCCCC1)CC2)c1cc2ccncc2o1 (stereo not drawn) [Example 35, N-[[6-[2-(1-piperidyl)acetyl]-6-azaspiro[2.5]octan-2-yl]methyl]furo[2,3-c]pyridine-2-carboxamide] | 2000
O=C(NCC1CC12CCN(C(=O)CC1CCOCC1)CC2)c1cc2ccncc2o1 (stereo not drawn) [Example 36, N-[[6-(2-tetrahydropyran-4-ylacetyl)-6-azaspiro[2.5]octan-2-yl]methyl]furo[2,3-c]pyridine-2-carboxamide] | 185
O=C(NCC1CC12CCN(C(=O)CC1CCCO1)CC2)c1cc2ccncc2o1 (stereo not drawn) [Example 37, N-[[6-(2-tetrahydrofuran-2-ylacetyl)-6-azasptro[2.5]octan-2-yl]methyl]furo[2,3-c]pyridine-2-carboxamide] | 643
CC(C)(C)OCC(=O)N1CCC2(CC1)CC2CNC(=O)c1cc2ccncc2o1 (stereo not drawn) [Example 38, N-[[6-(2-tert-butoxyacetyl)-6-azaspiro[2.5]octan-2-yl]methyl]furo[2,3-c]pyridine-2-carboxamide] | 18.8
O=C(NCC1CC12CCN(C(=O)Cc1cccnc1)CC2)c1cc2ccncc2o1 (stereo not drawn) [Example 39, N-[[6-[2-(3-pyridyl)acetyl]-6-azaspiro[2.5]octan-2-yl]methyl]furo[2,3-c]pyndine-2-carboxamide] | 232

Structure (SMILES) | IC50 [nM]
O=C(NCC1CC12CCN(C(=O)CC1CCN(CC(F)(F)F)CC1)CC2)c1cc2cnccc2[nH]1 (stereo not drawn) [Example 40, N-[[6-[2-[1-(2,2,2-trifluoroethyl)-4-piperidyl]acetyl]-6-azaspiro[2.5]octan-2-yl]methyl]-1H-pyrrolo[3,2-c]pyridine-2-carboxamide] | 24.3
CC(C)CC(=O)N1CCC2(CC1)CC2CNC(=O)c1cc2cnccc2[nH]1 (stereo not drawn) [Example 46, N-[[6-(3-methylbutanoyl)-6-azaspiro[2.5]octan-2-yl]methyl]-1H-pyrrolo[3,2-c]pyridine-2-carboxamide] | 402
O=C(Cc1ccccc1)N1CCC2(CC1)CC2CNC(=O)N1Cc2ccncc2C1 (stereo not drawn) [Example 47, N-[[6-(2-phenylacetyl)-6-azaspiro[2.5]octan-2-yl]methyl]-1,3-dihydropyrrolo[3,4-c]pyridine-2-carboxamide] | 12.6
O=C(NCC1CC12CCN(C(=O)Cc1cnccn1)CC2)c1cc2ccncc2o1 (stereo not drawn) [Example 50, N-[[6-(2-pyrazin-2-ylacetyl)-6-azasptro[2.5]octan-2-yl]methyl]furo[2,3-c]pyridine-2-carboxamide] | 2000
O=C(NCC1CC12CCN(C(=O)CN1CCOCC1)CC2)c1cc2ccncc2o1 (stereo not drawn) [Example 51, N-[[6-(2-morpholinoacetyl)-6-azaspiro[2.5]octan-2-yl]methyl]furo[2,3-c]pyridine-2-carboxamide] | 367
O=C(NCC1CC12CCN(C(=O)CC1CCCCO1)CC2)c1cc2ccncc2o1 (stereo not drawn) [Example 52, N-[[6-(2-tetrahydropyran-2-ylacetyl)-6-azaspiro[2.5]octan-2-yl]methyl]furo[2,3-c]pyridine-2-carboxamide] | 674
CC(C(=O)N1CCC2(CC1)CC2CNC(=O)c1cc2ccncc2o1)N1CCCC1 (stereo not drawn) [Example 53, N-[[6-(2-pyrrolidin-1-ylpropanoyl)-6-azaspiro[2.5]octan-2-yl]methyl]furo[2,3-c]pyridine-2-carboxamide] | 846
CN(C)C(=O)CCC(=O)N1CCC2(CC1)CC2CNC(=O)c1cc2ccncc2o1 (stereo not drawn) [Example 55, N-[[6-[4-(dimethylamino)-4-oxo-butanoyl]-6-azaspiro[2.5]octan-2-yl]methyl]furo[2,3-c]pyridine-2-carboxamide] | 2000
CN1CC(C(=O)N2CCC3(CC2)CC3CNC(=O)c2cc3ccncc3o2)CC1=O (stereo not drawn) [Example 56, N-[[6-(1-methyl-5-oxo-pyrrolidine-3-carbonyl)-6-azaspiro[2.5]octan-2-yl]methyl]furo[2,3-c]pyridine-2-carboxamide] | 2000
O=C(NCC1CC12CCN(C(=O)CN1CCCC1=O)CC2)c1cc2ccncc2o1 (stereo not drawn) [Example 57, N-[[6-[2-(2-oxopyrrolidin-1-yl)acetyl]-6-azaspiro[2.5]octan-2-yl)methyl]furo[2,3-c]pyridine-2-carboxamide] | 1600
O=C(NCC1CC12CCN(C(=O)C1CCOC1)CC2)c1cc2ccncc2o1 (stereo not drawn) [Example 59, N-[[6-(tetrahydrofuran-3-carbonyl)-6-azaspiro[2.5]octan-2-yl]methyl]furo[2,3-c]pyridine-2-carboxamide] | 2000
O=C(NCC1CC12CCN(C(=O)C1CCOCC1)CC2)c1cc2ccncc2o1 (stereo not drawn) [Example 60, N-[[6-(tetrahydropyran-4-carbonyl)-6-azaspiro[2.5]octan-2-yl]methyl]furo[2,3-c]pyridine-2-carboxamide] | 1530
O=C(NCC1CC12CCN(C(=O)C1CCCO1)CC2)c1cc2ccncc2o1 (stereo not drawn) [Example 61, N-[[6-(tetrahydrofuran-2-carbonyl)-6-azaspiro[2.5]octan-2-yl]methyl]furo[2,3-c]pyridine-2-carboxamide] | 2000
O=CNCC(=O)N1CCC2(CC1)CC2CNC(=O)c1cc2ccncc2o1 (stereo not drawn) [Example 62, N-[[6-(2-formamidoacetyl)-6-azaspiro[2.5]octan-2-yl]methyl]furo[2,3-c]pyridine-2-carboxamide] | 2000
Cc1cc(C)n(CCC(=O)N2CCC3(CC2)CC3CNC(=O)c2cc3ccncc3o2)n1 (stereo not drawn) [Example 63, N-[[6-[3-(3,5-dimethylpyrazol-1-yl)propanoyl]-6-azaspiro[2.5]octan-2-yl]methyl]furo[2,3-c]pyridine-2-carboxamide] | 1390
NC(=O)N1CCCC1C(=O)N1CCC2(CC1)CC2CNC(=O)c1cc2ccncc2o1 (stereo not drawn) [Example 64, N-[[6-(1-carbamoylpyrrolidine-2-carbonyl)-6-azaspiro[2.5]octan-2-yl]methyl]furo[2,3-c]pyridine-2-carboxamide] | 2000

Same assay, conditions: Homo sapiens, A2780, 72 h, read-out: Cell Proliferation (IC50)

Structure (SMILES) | IC50 [nM]
O=C(NCC1CC12CCN(C(=O)C1CC1(F)F)CC2)c1cc2ccncc2o1 (stereo not drawn) [Example 58, N-[[6-(2,2-difluorocyclopropanecarbonyl)-6-azaspiro[2.5]octan-2-yl]methyl]furo(2,3-c]pyridine-2-carboxamide] | 2000
